What was measured:
[1] = system: β-alanine transaminase; details: relative activities, Nakano et al. 1977; cited from earlier work
[2] = system: -aminobutyrate transaminase; details: relative activities, Nakano et al. 1977; cited from earlier work
[3] = solvent-to-aqueous phase partition coefficient of the ketone; type: physicochemical; details: heptane as organic solvent
Description: The organic solvent will normally be one in which the ketone produced is soluble to a greater degree than in water. Solvents in which the ketone has a solvent-to-aqueous phase partition coefficient greater than one are suitable and those with coefficients greater than 8 are preferred. Examples of these are liquid hydrocarbons such as benzene or hexane, halogenated hydrocarbons such as chloroform, dichloromethane or, carbon tetrachloride, various fluorocarbons such as freon, long-chain alcohols such as octanol or decanol, esters such as ethyl acetate, or triglyceride oils, A solvent which typifies this is heptane which has a partition coefficient of ≈24. Supercritical fluids such as supercritical CO2 may also be used.

For `NCCCC(=O)O` [-aminobutyrate], the “activity of β-alanine transaminase on the substrate” value [1] is given as 43 and the “activity of -aminobutyrate transaminase on the substrate” value [2] is given as 100.
For `CCCCCCC` [heptane], the “partition coefficient (ketone, solvent-to-aqueous phase)” value [3] was “≈ 24”.
For `NCCC(=O)O` [β-alanine], the “activity of β-alanine transaminase on the substrate” value [1] is listed as 100 and the “activity of -aminobutyrate transaminase on the substrate” value [2] is listed as 3.

From US5169780A, “Enantiomeric enrichment and stereoselective synthesis of chiral amines” (Celgene Corporation, priority 1990, dated 1992)
